Experimental data published in publication PMC6906472, “Purification and biological activity of natural variants synthesized by tridecaptin M gene cluster and in vitro drug-kinetics of this antibiotic class” (Scientific Reports, 2019).
Square brackets hold non-standard residues; d marks the D form. Peptide text beside a SMILES is read from it. * marks the point of attachment. d(aIle) = CC[C@H](C)[C@@H](N)C(=O)O; X1 = CC[C@H](C)CCCCC(=O)*; dDab = NCC[C@@H](N)C(=O)O; Dab = NCC[C@H](N)C(=O)O

How the values were obtained:
A. baumannii ATCC 19606 = settings: ATCC 19606
Method: (§1) MICs for all the compounds were determined by broth microdilution assay, according to CLSI guidelines[16] as described previously. Haemolysis experiments were performed with fresh rabbit RBCs[11]. All the compounds were tested at a concentration of 128 µg/ml. To obtain rabbit blood, the experiments and the protocols were in accordance with the ethical standards of the Institutional Animal Ethics Committee (IAEC) of the Institute of Microbial Technology approved (Approval no. IAEC/17/11) by Committee for the Purpose of Control And Supervision of Experiments on Animals (CPCSEA, Government of India).

E. coli CF-23 (mcr-1) = system: E. coli CF-23 (mcr-1)
Method: as §1

[1] = system: K. pneumoniae AH-16 (Col-R)
Method: as §1

[2] = system: K. pneumoniae AH-3 (Col-R)
Method: as §1

[3] = system: K. pneumoniae ATCC 700603
Method: as §1

K. pneumoniae P3R (M1-R) = settings: broth microdilution, CLSI guidelines; M1-resistant mutant of ATCC 700603
Method: as §1

P. aeruginosa ATCC 27853 = settings: ATCC 27853
Method: as §1

[4] = system: Proteus mirabilis MTCC 1429
Method: as §1

[5] = system: Serratia marcescens MTCC 97
Method: as §1

SMILES | Peptide MIC (A. baumannii ATCC 19606) [µg/mL] | Peptide MIC (E. coli CF-23 (mcr-1)) [µg/mL] | Peptide MIC [1] [µg/mL] | Peptide MIC [2] [µg/mL] | Peptide MIC [3] [µg/mL] | Peptide MIC (K. pneumoniae P3R (M1-R)) [µg/mL] | Peptide MIC (P. aeruginosa ATCC 27853) [µg/mL] | Peptide MIC [4] [µg/mL] | Peptide MIC [5] [µg/mL]
CC[C@H](C)CCCCC(=O)NCC(=O)N[C@H](CCN)C(=O)NCC(=O)N[C@H](CO)C(=O)N[C@H](Cc1c[nH]c2ccccc12)C(=O)N[C@@H](CO)C(=O)N[C@@H](CCN)C(=O)N[C@H](CCN)C(=O)N[C@H](C(=O)N[C@@H](CCC(=O)O)C(=O)N[C@H](C(=O)N[C@@H](C(=O)N[C@@H](CO)C(=O)O)C(C)C)C(C)C)[C@@H](C)CC [M2] (X1-G[dDab]G[dS][dW]S[Dab][dDab]IEV[dV]S-OH) | >32 | 16 | >16 | 8 | 8 | >32 | >32 | >16 | >16
CC[C@H](C)CCCCC(=O)NCC(=O)N[C@H](CCN)C(=O)NCC(=O)N[C@H](CO)C(=O)N[C@H](Cc1ccccc1)C(=O)N[C@@H](CO)C(=O)N[C@@H](CCN)C(=O)N[C@H](CCN)C(=O)N[C@H](C(=O)N[C@@H](CCC(=O)O)C(=O)N[C@H](C(=O)N[C@@H](C(=O)N[C@@H](CO)C(=O)O)C(C)C)[C@@H](C)CC)[C@@H](C)CC [M5] (X1-G[dDab]G[dS][dF]S[Dab][dDab]IEI[dV]S-OH) | >32 | 16 | 16 | 16 | 16 | 16 | >32 | 16 | 8
CC[C@H](C)CCCCC(=O)NCC(=O)N[C@H](CCN)C(=O)NCC(=O)N[C@H](CO)C(=O)N[C@H](Cc1c[nH]c2ccccc12)C(=O)N[C@@H](CO)C(=O)N[C@@H](CCN)C(=O)N[C@H](CCN)C(=O)N[C@H](C(=O)N[C@@H](CCC(=O)O)C(=O)N[C@H](C(=O)N[C@@H](C(=O)N[C@@H](CO)C(=O)O)C(C)C)[C@@H](C)CC)[C@@H](C)CC [M6] (X1-G[dDab]G[dS][dW]S[Dab][dDab]IEI[dV]S-OH) | >32 | 4 | 2 | 4 | 4 | 16 | >32 | >16 | 16
CC[C@H](C)CCCCC(=O)NCC(=O)N[C@H](CCN)C(=O)NCC(=O)N[C@H](CO)C(=O)N[C@H](Cc1c[nH]c2ccccc12)C(=O)N[C@@H](CO)C(=O)N[C@@H](CCN)C(=O)N[C@H](CCN)C(=O)N[C@H](C(=O)N[C@@H](CCC(=O)O)C(=O)N[C@H](C(=O)N[C@@H](C(=O)N[C@@H](CO)C(=O)O)[C@@H](C)CC)[C@@H](C)CC)C(C)C [M7] (X1-G[dDab]G[dS][dW]S[Dab][dDab]VEI[d(aIle)]S-OH) | >32 | 16 | 8 | 8 | 8 | 16 | >32 | >16 | 8
